Measurements as given in ChEMBL document CHEMBL1142734, “Biological properties of D- and L-1-deoxyazasugars” (J Med Chem, 2005).

Tests used:
[1] = molecular target: T1, Alpha-galactosidase C (Aspergillus niger) (UniProt Q9UUZ4); assay: Percent inhibition of alpha-galactosidase of Aspergillus niger at 1000 uM
T1 sequence (whole entry): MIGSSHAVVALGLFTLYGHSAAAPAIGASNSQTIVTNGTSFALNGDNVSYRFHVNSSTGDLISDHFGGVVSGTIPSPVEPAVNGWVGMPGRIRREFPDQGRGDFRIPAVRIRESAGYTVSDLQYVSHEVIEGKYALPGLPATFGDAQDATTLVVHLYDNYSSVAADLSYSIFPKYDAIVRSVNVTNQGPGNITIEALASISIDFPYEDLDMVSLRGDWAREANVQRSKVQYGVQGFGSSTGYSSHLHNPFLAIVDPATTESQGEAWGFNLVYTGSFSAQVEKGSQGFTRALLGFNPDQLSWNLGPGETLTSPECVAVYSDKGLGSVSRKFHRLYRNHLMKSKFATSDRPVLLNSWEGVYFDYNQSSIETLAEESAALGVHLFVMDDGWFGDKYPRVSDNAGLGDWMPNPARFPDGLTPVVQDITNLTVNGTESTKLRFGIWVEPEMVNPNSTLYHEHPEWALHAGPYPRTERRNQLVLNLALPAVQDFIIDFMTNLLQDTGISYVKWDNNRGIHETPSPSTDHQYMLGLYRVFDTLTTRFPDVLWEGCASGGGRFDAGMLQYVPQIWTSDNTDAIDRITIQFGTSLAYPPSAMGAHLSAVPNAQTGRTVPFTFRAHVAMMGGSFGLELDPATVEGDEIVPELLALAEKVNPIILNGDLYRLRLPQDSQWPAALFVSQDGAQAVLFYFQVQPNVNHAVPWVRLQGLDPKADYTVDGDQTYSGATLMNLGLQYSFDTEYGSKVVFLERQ

[2] = molecular target: T2, Alpha-galactosidase A (Homo sapiens) (UniProt P06280); details: 1000 uM
T2 sequence (whole entry): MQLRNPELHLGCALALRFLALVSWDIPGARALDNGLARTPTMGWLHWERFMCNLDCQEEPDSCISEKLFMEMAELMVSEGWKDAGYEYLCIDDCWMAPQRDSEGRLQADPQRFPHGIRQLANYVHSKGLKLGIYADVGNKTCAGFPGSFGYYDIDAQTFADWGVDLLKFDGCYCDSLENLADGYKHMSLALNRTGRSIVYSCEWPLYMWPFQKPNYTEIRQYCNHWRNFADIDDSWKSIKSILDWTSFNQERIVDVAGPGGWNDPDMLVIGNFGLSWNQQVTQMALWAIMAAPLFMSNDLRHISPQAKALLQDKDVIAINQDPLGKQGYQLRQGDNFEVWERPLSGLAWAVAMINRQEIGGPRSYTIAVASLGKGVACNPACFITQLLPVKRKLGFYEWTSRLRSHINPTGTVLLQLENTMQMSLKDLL

[3] = molecular target: T3, Beta-mannosidase (Homo sapiens) (UniProt O00462); assay: Percent inhibition of human beta-mannosidase at 1000 uM
T3 sequence (whole entry): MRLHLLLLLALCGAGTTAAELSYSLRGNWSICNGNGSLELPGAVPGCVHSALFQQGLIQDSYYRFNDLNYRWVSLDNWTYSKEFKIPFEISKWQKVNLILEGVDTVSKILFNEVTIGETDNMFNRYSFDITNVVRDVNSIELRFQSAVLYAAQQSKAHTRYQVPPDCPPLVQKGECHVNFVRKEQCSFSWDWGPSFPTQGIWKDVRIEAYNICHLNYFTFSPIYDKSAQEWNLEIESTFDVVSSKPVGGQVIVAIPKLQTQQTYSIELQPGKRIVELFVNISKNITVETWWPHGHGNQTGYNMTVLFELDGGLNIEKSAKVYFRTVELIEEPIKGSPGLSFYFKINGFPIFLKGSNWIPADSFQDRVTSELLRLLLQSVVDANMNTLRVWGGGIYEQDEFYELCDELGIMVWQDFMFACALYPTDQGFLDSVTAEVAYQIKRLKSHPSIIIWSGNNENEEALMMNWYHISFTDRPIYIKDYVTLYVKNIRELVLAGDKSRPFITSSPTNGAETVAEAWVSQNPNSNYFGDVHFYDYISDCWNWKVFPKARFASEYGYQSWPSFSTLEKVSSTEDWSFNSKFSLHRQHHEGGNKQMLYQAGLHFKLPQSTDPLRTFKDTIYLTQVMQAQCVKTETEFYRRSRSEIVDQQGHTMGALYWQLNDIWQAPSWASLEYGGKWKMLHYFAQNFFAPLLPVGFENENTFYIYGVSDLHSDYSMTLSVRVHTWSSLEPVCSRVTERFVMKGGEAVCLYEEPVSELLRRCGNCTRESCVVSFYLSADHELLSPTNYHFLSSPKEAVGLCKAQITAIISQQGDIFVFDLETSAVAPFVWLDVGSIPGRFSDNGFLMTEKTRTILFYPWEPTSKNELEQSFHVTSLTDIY

[4] = molecular target: T4, Beta-galactosidase (Bos taurus) (UniProt Q58D55); assay: Percent inhibition of beta-galactosidase of bovine liver at 1000 uM
T4 sequence (whole entry): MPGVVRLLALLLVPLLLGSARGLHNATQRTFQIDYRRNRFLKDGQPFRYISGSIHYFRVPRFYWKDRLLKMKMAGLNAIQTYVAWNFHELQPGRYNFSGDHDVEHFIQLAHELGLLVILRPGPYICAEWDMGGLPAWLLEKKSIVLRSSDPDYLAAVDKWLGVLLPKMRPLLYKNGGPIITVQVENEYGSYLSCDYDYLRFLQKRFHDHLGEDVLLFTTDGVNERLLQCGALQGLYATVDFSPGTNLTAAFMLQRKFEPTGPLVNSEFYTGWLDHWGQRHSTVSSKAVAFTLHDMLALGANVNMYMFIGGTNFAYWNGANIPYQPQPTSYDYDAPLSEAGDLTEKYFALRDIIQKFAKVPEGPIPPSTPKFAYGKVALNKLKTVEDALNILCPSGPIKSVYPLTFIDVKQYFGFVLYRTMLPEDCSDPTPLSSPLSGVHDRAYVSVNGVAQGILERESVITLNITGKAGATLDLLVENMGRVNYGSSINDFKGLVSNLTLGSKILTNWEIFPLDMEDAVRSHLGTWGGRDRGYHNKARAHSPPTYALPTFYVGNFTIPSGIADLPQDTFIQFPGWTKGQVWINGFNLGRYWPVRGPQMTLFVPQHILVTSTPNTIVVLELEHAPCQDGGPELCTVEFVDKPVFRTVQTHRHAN

[5] = molecular target: Sucrase-isomaltase, intestinal (Rattus norvegicus) (UniProt P23739); details: 1000 uM
Chain of Sucrase-isomaltase, intestinal (Rattus norvegicus) (P23739 1-1013 limits assumed): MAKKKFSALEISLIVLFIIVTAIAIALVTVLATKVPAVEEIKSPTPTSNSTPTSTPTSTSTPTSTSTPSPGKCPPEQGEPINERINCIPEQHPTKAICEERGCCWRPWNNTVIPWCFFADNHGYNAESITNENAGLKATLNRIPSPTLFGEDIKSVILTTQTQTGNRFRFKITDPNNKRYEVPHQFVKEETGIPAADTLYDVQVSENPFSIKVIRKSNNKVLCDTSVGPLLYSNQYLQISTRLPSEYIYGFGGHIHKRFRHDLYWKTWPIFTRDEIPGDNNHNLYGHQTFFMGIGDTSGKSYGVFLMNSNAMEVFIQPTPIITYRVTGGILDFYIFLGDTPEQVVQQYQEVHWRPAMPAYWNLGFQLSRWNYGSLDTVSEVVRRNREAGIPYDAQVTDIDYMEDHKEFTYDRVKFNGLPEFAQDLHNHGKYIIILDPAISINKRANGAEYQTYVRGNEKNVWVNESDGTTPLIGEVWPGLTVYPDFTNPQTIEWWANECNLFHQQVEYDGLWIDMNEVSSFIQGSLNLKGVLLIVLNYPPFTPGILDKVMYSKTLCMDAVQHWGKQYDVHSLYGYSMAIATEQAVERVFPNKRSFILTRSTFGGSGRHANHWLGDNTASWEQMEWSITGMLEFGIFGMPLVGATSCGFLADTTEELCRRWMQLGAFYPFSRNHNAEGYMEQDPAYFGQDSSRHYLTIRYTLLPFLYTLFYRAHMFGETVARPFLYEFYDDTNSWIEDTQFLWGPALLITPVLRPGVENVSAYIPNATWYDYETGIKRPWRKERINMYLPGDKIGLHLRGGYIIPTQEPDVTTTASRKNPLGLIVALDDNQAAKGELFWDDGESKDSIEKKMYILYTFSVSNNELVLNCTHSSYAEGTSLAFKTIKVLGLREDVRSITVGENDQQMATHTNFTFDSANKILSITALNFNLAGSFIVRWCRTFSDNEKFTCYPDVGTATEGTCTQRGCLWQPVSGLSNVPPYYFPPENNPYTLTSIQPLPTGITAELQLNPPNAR
Chain of Sucrase-isomaltase, intestinal (Rattus norvegicus) (P23739 1014-1841 limits assumed): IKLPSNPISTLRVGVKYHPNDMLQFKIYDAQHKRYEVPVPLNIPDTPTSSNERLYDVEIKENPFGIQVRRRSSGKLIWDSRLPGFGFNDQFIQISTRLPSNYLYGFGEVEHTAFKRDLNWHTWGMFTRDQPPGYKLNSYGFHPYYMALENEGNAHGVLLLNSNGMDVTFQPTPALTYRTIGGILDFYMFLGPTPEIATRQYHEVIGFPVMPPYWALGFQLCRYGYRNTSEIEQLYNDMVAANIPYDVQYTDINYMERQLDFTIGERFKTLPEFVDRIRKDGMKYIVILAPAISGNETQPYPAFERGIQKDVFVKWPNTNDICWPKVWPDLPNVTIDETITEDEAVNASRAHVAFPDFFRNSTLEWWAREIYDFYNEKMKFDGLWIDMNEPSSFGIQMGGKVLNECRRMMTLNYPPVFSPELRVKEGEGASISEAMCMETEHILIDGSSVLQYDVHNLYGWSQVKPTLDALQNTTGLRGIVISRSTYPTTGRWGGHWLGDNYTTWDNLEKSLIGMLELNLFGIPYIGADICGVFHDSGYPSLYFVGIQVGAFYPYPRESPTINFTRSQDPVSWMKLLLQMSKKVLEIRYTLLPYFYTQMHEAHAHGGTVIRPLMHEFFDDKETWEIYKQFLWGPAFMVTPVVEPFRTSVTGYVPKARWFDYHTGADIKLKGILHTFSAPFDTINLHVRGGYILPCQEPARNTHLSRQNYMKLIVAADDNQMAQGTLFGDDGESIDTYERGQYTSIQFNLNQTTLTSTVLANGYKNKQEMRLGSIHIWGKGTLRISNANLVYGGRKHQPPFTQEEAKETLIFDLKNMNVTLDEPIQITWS

Measured: inhibition

OC[C@H]1NC[C@H](O)[C@@H](O)[C@@H]1O [DUVOGLUSTAT]
< 50%: [1] | [2] | [3]

OC[C@@H]1NC[C@@H](O)[C@@H](O)[C@@H]1O
< 50%: [1] | [4] | [2] | [3] | [5]

OC[C@H]1NC[C@H](O)[C@H](O)[C@H]1O
< 50%: [1] | [4] | [3] | [5]

OC[C@@H]1NC[C@@H](O)[C@H](O)[C@@H]1O
< 50%: [1] | [3] | [5]

OC[C@@H]1NC[C@@H](O)[C@H](O)[C@H]1O
< 50%: [1] | [2] | [3]

OC[C@H]1NC[C@@H](O)[C@@H](O)[C@@H]1O [DEOXYMANNOJIRIMYCIN]
< 50%: [1] | [4] | [2] | [3]

OC[C@@H]1NC[C@H](O)[C@@H](O)[C@@H]1O
< 50%: [1] | [4] | [2] | [3] | [5]

OC[C@H]1NC[C@@H](O)[C@H](O)[C@H]1O
< 50%: [1] | [3] | [5]

OC[C@@H]1NC[C@@H](O)[C@@H](O)[C@H]1O
< 50%: [1] | [4] | [2] | [3] | [5]

OC[C@H]1NC[C@H](O)[C@@H](O)[C@H]1O
< 50%: [4] | [3] | [5]

OC[C@H]1NC[C@H](O)[C@H](O)[C@@H]1O
< 50%: [1] | [4] | [2] | [3] | [5]

OC[C@@H]1NC[C@H](O)[C@H](O)[C@H]1O
< 50%: [1] | [4] | [2] | [3] | [5]
